# Reference: publication PMC5218480 (PLoS ONE, 2017)
# System: MV-4-11 cells
# Test: Gene expression microarray analysis (Affymetrix PrimeView) and GSEA
# Assay type: cell-based, human
# Set-up: RFU PODN (11730768_x_at) / Fold change /veh PODN (11730768_x_at) / RFU LINC00158 (11744669_a_at) / Fold change /veh LINC00158 (11744669_a_at) / RFU DUSP10 (11751237_a_at) / Fold change /veh DUSP10 (11751237_a_at) / RFU ID3 (11757404_x_at) / Fold change /veh ID3 (11757404_x_at) / RFU PLEKHG5 (11737974_s_at) / Fold change /veh PLEKHG5 (11737974_s_at) / RFU LRRC4B (11730491_at) / Fold change /veh LRRC4B (11730491_at) / RFU GIMAP4 (11747438_a_at) / Fold change /veh GIMAP4 (11747438_a_at) / RFU KRT8 (11758183_x_at) / Fold change /veh KRT8 (11758183_x_at) / RFU CNN1 (11734310_a_at) / Fold change /veh CNN1 (11734310_a_at) / RFU VPS37D (11726825_at) / Fold change /veh VPS37D (11726825_at) / RFU C10orf10 (11716522_x_at) / Fold change /veh C10orf10 (11716522_x_at) / RFU KIR2DL2 /// KIR2DL4 /// KIR2DL5A /// KIR2DL5B /// KIR2DS1 /// KIR2DS2 /// KIR2DS3 /// KIR2DS4 /// KIR3DL3 /// KIR3DL3 /// KIR3DS1 (11738374_at) / Fold change /veh KIR2DL2 /// KIR2DL4 /// KIR2DL5A /// KIR2DL5B /// KIR2DS1 /// KIR2DS2 /// KIR2DS3 /// KIR2DS4 /// KIR3DL3 /// KIR3DL3 /// KIR3DS1 (11738374_at) / RFU C1QL1 (11718748_at) / Fold change /veh C1QL1 (11718748_at) / RFU TMPRSS4 (11747572_a_at) / Fold change /veh TMPRSS4 (11747572_a_at) / RFU HAMP (11756126_x_at) / Fold change /veh HAMP (11756126_x_at) / RFU RNFT2 (11725882_a_at) / Fold change /veh RNFT2 (11725882_a_at) / RFU NR4A2 (11747474_a_at) / Fold change /veh NR4A2 (11747474_a_at) / RFU ABCC12 (11746883_a_at) / Fold change /veh ABCC12 (11746883_a_at) / RFU TMEM136 (11760407_x_at) / Fold change /veh TMEM136 (11760407_x_at) / RFU CLDN22 /// WWC2 (11732394_at) / Fold change /veh CLDN22 /// WWC2 (11732394_at) / RFU HLA-DPB1 (11760878_x_at) / Fold change /veh HLA-DPB1 (11760878_x_at) / RFU SPINT1 (11716480_a_at) / Fold change /veh SPINT1 (11716480_a_at) / RFU GAP43 (11754022_s_at) / Fold change /veh GAP43 (11754022_s_at) / RFU A4GNT (11735810_at) / Fold change /veh A4GNT (11735810_at) / RFU PRB3 (11715151_x_at) / Fold change /veh PRB3 (11715151_x_at) / RFU TUBB4B (11761932_at) / Fold change /veh TUBB4B (11761932_at) / RFU CAPN14 (11732068_a_at) / Fold change /veh CAPN14 (11732068_a_at) / RFU TMCC2 (11721928_a_at) / Fold change /veh TMCC2 (11721928_a_at) / RFU IRGQ (11745062_a_at) / Fold change /veh IRGQ (11745062_a_at) / RFU FAM174B (11720279_a_at) / Fold change /veh FAM174B (11720279_a_at) / RFU TMPRSS4 (11748680_a_at) / Fold change /veh TMPRSS4 (11748680_a_at) / RFU FAM212B (11763350_a_at) / Fold change /veh FAM212B (11763350_a_at) / RFU PLEKHG5 (11743358_a_at) / Fold change /veh PLEKHG5 (11743358_a_at) / RFU ZSCAN30 (11745921_a_at) / Fold change /veh ZSCAN30 (11745921_a_at) / RFU CMKLR1 (11741424_a_at) / Fold change /veh CMKLR1 (11741424_a_at) / RFU LOC101060620 /// MAPK8IP1 (11723275_at) / Fold change /veh LOC101060620 /// MAPK8IP1 (11723275_at) / RFU SPTSSB (11747773_x_at) / Fold change /veh SPTSSB (11747773_x_at) / RFU PRSS12 (11739890_at) / Fold change /veh PRSS12 (11739890_at) / RFU BIN1 (11741810_x_at) / Fold change /veh BIN1 (11741810_x_at) / RFU WNT11 (11732464_a_at) / Fold change /veh WNT11 (11732464_a_at) / RFU C10orf10 (11716521_a_at) / Fold change /veh C10orf10 (11716521_a_at) / RFU C5orf56 (11738089_at) / Fold change /veh C5orf56 (11738089_at) / RFU CYB561 (11721691_x_at) / Fold change /veh CYB561 (11721691_x_at) / RFU ANKRD19P (11752326_a_at) / Fold change /veh ANKRD19P (11752326_a_at) / RFU OR2T12 /// OR2T33 /// OR2T8 (11738714_s_at) / Fold change /veh OR2T12 /// OR2T33 /// OR2T8 (11738714_s_at) / RFU VCAN (11748164_a_at) / Fold change /veh VCAN (11748164_a_at) / RFU JSRP1 (11732532_at) / Fold change /veh JSRP1 (11732532_at) / RFU KRTAP10-11 (11738290_x_at) / Fold change /veh KRTAP10-11 (11738290_x_at) / RFU MYO3A (11730013_a_at) / Fold change /veh MYO3A (11730013_a_at) / RFU EBF3 (11725865_a_at) / Fold change /veh EBF3 (11725865_a_at) / RFU CAMK2N1 (11719241_x_at) / Fold change /veh CAMK2N1 (11719241_x_at) / RFU C5orf56 (11738088_a_at) / Fold change /veh C5orf56 (11738088_a_at) / RFU OLFML3 (11715873_a_at) / Fold change /veh OLFML3 (11715873_a_at) / RFU LOC100653217 /// NTM (11731650_a_at) / Fold change /veh LOC100653217 /// NTM (11731650_a_at) / RFU MAPK11 (11762145_a_at) / Fold change /veh MAPK11 (11762145_a_at) / RFU FIZ1 (11724087_x_at) / Fold change /veh FIZ1 (11724087_x_at) / RFU OASL (11726364_x_at) / Fold change /veh OASL (11726364_x_at) / RFU SOX15 (11748057_x_at) / Fold change /veh SOX15 (11748057_x_at) / RFU CD79A (11719716_a_at) / Fold change /veh CD79A (11719716_a_at) / RFU HIST1H1D (11736915_at) / Fold change /veh HIST1H1D (11736915_at) / RFU CASKIN2 (11723855_a_at) / Fold change /veh CASKIN2 (11723855_a_at) / RFU LOC730098 (11760151_x_at) / Fold change /veh LOC730098 (11760151_x_at) / RFU OR4N2 (11742367_at) / Fold change /veh OR4N2 (11742367_at) / RFU PRRT2 (11749266_a_at) / Fold change /veh PRRT2 (11749266_a_at) / RFU SNX32 (11753110_a_at) / Fold change /veh SNX32 (11753110_a_at) / RFU CDHR5 (11726645_a_at) / Fold change /veh CDHR5 (11726645_a_at) / RFU RCAN1 (11760418_a_at) / Fold change /veh RCAN1 (11760418_a_at) / RFU FAM167A (11723789_a_at) / Fold change /veh FAM167A (11723789_a_at) / RFU FAM26E (11764081_at) / Fold change /veh FAM26E (11764081_at) / RFU ISYNA1 (11749810_s_at) / Fold change /veh ISYNA1 (11749810_s_at) / RFU ACY1 (11761880_at) / Fold change /veh ACY1 (11761880_at) / RFU 11764098_at / Fold change /veh 11764098_at / RFU SAMD14 (11745864_x_at) / Fold change /veh SAMD14 (11745864_x_at) / RFU NPB (11741838_a_at) / Fold change /veh NPB (11741838_a_at) / RFU TMPRSS6 (11731388_a_at) / Fold change /veh TMPRSS6 (11731388_a_at) / RFU KRTAP10-2 (11738614_at) / Fold change /veh KRTAP10-2 (11738614_at) / RFU ARHGAP8 /// PRR5-ARHGAP8 (11727945_x_at) / Fold change /veh ARHGAP8 /// PRR5-ARHGAP8 (11727945_x_at) / RFU KRTAP5-7 /// NADSYN1 (11734609_at) / Fold change /veh KRTAP5-7 /// NADSYN1 (11734609_at) / RFU RASL12 (11751679_a_at) / Fold change /veh RASL12 (11751679_a_at) / RFU CDKN2B (11736163_a_at) / Fold change /veh CDKN2B (11736163_a_at) / RFU PRF1 (11729649_at) / Fold change /veh PRF1 (11729649_at) / RFU, ZNF638 /// ZNF638-IT1 / Fold change vs veh, ZNF638 /// ZNF638-IT1 / RFU, PANK3 / Fold change vs veh, PANK3 / RFU, SH3YL1 / Fold change vs veh, SH3YL1 / RFU, ZEB2 / Fold change vs veh, ZEB2 / RFU, NRIP1 / Fold change vs veh, NRIP1 / RFU, PTTG1IP / Fold change vs veh, PTTG1IP / RFU, CAPN2 / Fold change vs veh, CAPN2 / RFU, MED14 / Fold change vs veh, MED14 / RFU, SNORA58 / Fold change vs veh, SNORA58 / RFU, C1orf63 / Fold change vs veh, C1orf63 / RFU, LRRFIP1 / Fold change vs veh, LRRFIP1 / RFU, NDUFAF7 / Fold change vs veh, NDUFAF7 / RFU, SLC12A2 / Fold change vs veh, SLC12A2 / RFU, IBTK / Fold change vs veh, IBTK / RFU, ESF1 / Fold change vs veh, ESF1 / Fold change vs veh, TMEM50B / RFU, TAOK1 / Fold change vs veh, TAOK1 / RFU, ACBD3 / Fold change vs veh, ACBD3 / RFU, TMA16 / Fold change vs veh, TMA16 / RFU, RWDD3 / Fold change vs veh, RWDD3 / RFU, BCAT1 / Fold change vs veh, BCAT1 / RFU, EDEM3 / Fold change vs veh, EDEM3 / RFU, TMEM33 / Fold change vs veh, TMEM33 / RFU, WDR75 / Fold change vs veh, WDR75 / RFU, AHCTF1 / Fold change vs veh, AHCTF1 / RFU, TFRC / Fold change vs veh, TFRC / RFU, ZDHHC17 / Fold change vs veh, ZDHHC17 / RFU, NOM1 / Fold change vs veh, NOM1 / RFU, ARL8B / Fold change vs veh, ARL8B / RFU, ZBTB11 / Fold change vs veh, ZBTB11 / RFU, TAMM41 / Fold change vs veh, TAMM41 / RFU, KIAA1704 /// LOC100996395 / Fold change vs veh, KIAA1704 /// LOC100996395 / RFU, ING1 / Fold change vs veh, ING1 / RFU, TRMT61B / Fold change vs veh, TRMT61B / RFU, FUBP3 / Fold change vs veh, FUBP3 / RFU, TP53 / Fold change vs veh, TP53 / RFU, TNKS2 / Fold change vs veh, TNKS2 / RFU, ZFP14 / Fold change vs veh, ZFP14 / RFU, ACTR2 / Fold change vs veh, ACTR2 / RFU, PPP3R1 / Fold change vs veh, PPP3R1 / RFU, PIK3R1 / Fold change vs veh, PIK3R1 / RFU, HNRNPA1 / Fold change vs veh, HNRNPA1 / RFU, RNF170 / Fold change vs veh, RNF170 / RFU, ZNF28 / Fold change vs veh, ZNF28 / RFU, RNGTT / Fold change vs veh, RNGTT / RFU, OGT / Fold change vs veh, OGT / RFU, BRD1 / Fold change vs veh, BRD1 / RFU, MARS / Fold change vs veh, MARS / RFU, ZNF655 / Fold change vs veh, ZNF655 / RFU, FAHD1 / Fold change vs veh, FAHD1 / RFU, BDP1 / Fold change vs veh, BDP1 / RFU, LRRCC1 / Fold change vs veh, LRRCC1 / RFU, ARID1A / Fold change vs veh, ARID1A / RFU, ZNF146 / Fold change vs veh, ZNF146 / RFU, ZNF330 / Fold change vs veh, ZNF330 / RFU, GPN3 / Fold change vs veh, GPN3 / RFU, C9orf123 / Fold change vs veh, C9orf123 / RFU, N4BP2L2 / Fold change vs veh, N4BP2L2 / RFU, ARFIP1 / Fold change vs veh, ARFIP1 / RFU, FAM179B / Fold change vs veh, FAM179B / RFU, BCL10 / Fold change vs veh, BCL10 / RFU, UHRF1BP1L / Fold change vs veh, UHRF1BP1L / RFU, BET1 / Fold change vs veh, BET1 / RFU, CNOT2 / Fold change vs veh, CNOT2 / RFU, ZNF268 / Fold change vs veh, ZNF268 / Fold change vs veh, ZNF507 / RFU, DGCR2 / Fold change vs veh, DGCR2 / RFU, WDSUB1 / Fold change vs veh, WDSUB1 / Fold change vs veh, HSP90B1 /// MIR3652 / RFU, ADSS / Fold change vs veh, ADSS / RFU, GK / Fold change vs veh, GK / RFU, ZNF148 / Fold change vs veh, ZNF148 / RFU, TAF9 / Fold change vs veh, TAF9 / RFU, SLC1A5 / Fold change vs veh, SLC1A5 / RFU, SLMO2 / Fold change vs veh, SLMO2 / RFU, ABCC4 / Fold change vs veh, ABCC4 / RFU, LOC101060439 /// RAP1B / Fold change vs veh, LOC101060439 /// RAP1B / RFU, RFX7 / Fold change vs veh, RFX7 / RFU, GTPBP10 / Fold change vs veh, GTPBP10 / RFU, CNEP1R1 / Fold change vs veh, CNEP1R1 / RFU, BIVM-ERCC5 /// ERCC5 / Fold change vs veh, BIVM-ERCC5 /// ERCC5 / RFU, ILF3 / Fold change vs veh, ILF3 / RFU 11762660_at / Fold change /veh 11762660_at / RFU VCAN (11757783_s_at) / Fold change /veh VCAN (11757783_s_at) / RFU DDX43 (11728927_at) / Fold change /veh DDX43 (11728927_at) / RFU KRT8 (11758188_x_at) / Fold change /veh KRT8 (11758188_x_at) / RFU NKD1 (11759106_at) / Fold change /veh NKD1 (11759106_at) / RFU SRD5A1 (11742802_a_at) / Fold change /veh SRD5A1 (11742802_a_at) / RFU TPSAB1 /// TPSB2 (11721975_s_at) / Fold change /veh TPSAB1 /// TPSB2 (11721975_s_at) / RFU GSTM3 (11746129_a_at) / Fold change /veh GSTM3 (11746129_a_at) / RFU IL23R (11737362_x_at) / Fold change /veh IL23R (11737362_x_at) / RFU TMEM51 (11727254_a_at) / Fold change /veh TMEM51 (11727254_a_at) / RFU PIWIL2 (11732686_x_at) / Fold change /veh PIWIL2 (11732686_x_at) / RFU ORM1 (11744905_x_at) / Fold change /veh ORM1 (11744905_x_at) / RFU CCDC152 (11743942_at) / Fold change /veh CCDC152 (11743942_at) / RFU ECM1 (11717891_a_at) / Fold change /veh ECM1 (11717891_a_at) / RFU IL23R (11748794_a_at) / Fold change /veh IL23R (11748794_a_at) / RFU TNFAIP8L3 (11732012_x_at) / Fold change /veh TNFAIP8L3 (11732012_x_at) / RFU MBOAT4 (11741988_at) / Fold change /veh MBOAT4 (11741988_at) / RFU 11764193_at / Fold change /veh 11764193_at / RFU TMEM53 (11763286_at) / Fold change /veh TMEM53 (11763286_at) / RFU MAGEB2 (11727129_at) / Fold change /veh MAGEB2 (11727129_at) / RFU TMEM200A (11744735_a_at) / Fold change /veh TMEM200A (11744735_a_at) / RFU CCDC152 (11751479_a_at) / Fold change /veh CCDC152 (11751479_a_at) / RFU FAM211A (11726209_a_at) / Fold change /veh FAM211A (11726209_a_at) / RFU RGS16 (11746705_a_at) / Fold change /veh RGS16 (11746705_a_at) / RFU VCAN (11755009_s_at) / Fold change /veh VCAN (11755009_s_at) / RFU RHOB (11743442_s_at) / Fold change /veh RHOB (11743442_s_at) / RFU RGS16 (11720943_a_at) / Fold change /veh RGS16 (11720943_a_at) / RFU RGS16 (11720944_at) / Fold change /veh RGS16 (11720944_at) / RFU, VPS4B / Fold change vs veh, VPS4B / RFU, CREB1 / Fold change vs veh, CREB1 / RFU, DNAJC13 / Fold change vs veh, DNAJC13 / RFU, GNAQ / Fold change vs veh, GNAQ / RFU, CDK5R1 / Fold change vs veh, CDK5R1 / RFU, ZRANB3 / Fold change vs veh, ZRANB3 / RFU, CUL4A / Fold change vs veh, CUL4A / RFU, CCNY / Fold change vs veh, CCNY / RFU, UFL1 / Fold change vs veh, UFL1 / RFU, COG3 / Fold change vs veh, COG3 / RFU, DIAPH2 / Fold change vs veh, DIAPH2 / RFU, SKA2 / Fold change vs veh, SKA2 / RFU, AFF3 / Fold change vs veh, AFF3 / RFU, LMF1 / Fold change vs veh, LMF1 / RFU, IPO11 / Fold change vs veh, IPO11 / RFU, DFFB / Fold change vs veh, DFFB / RFU, FOXP1 / Fold change vs veh, FOXP1 / RFU, CARD8 / Fold change vs veh, CARD8 / RFU, STRN3 / Fold change vs veh, STRN3 / RFU, ADK / Fold change vs veh, ADK / RFU, RASSF2 / Fold change vs veh, RASSF2 / RFU, WIPF1 / Fold change vs veh, WIPF1 / RFU, LARP1B / Fold change vs veh, LARP1B / RFU, RASA1 / Fold change vs veh, RASA1 / RFU, RB1 / Fold change vs veh, RB1 / RFU, PPFIA1 / Fold change vs veh, PPFIA1 / RFU, MAT2A / Fold change vs veh, MAT2A / RFU, CCT5 / Fold change vs veh, CCT5 / RFU, WDR92 / Fold change vs veh, WDR92 / RFU, CUX1 / Fold change vs veh, CUX1 / RFU, TTC7A / Fold change vs veh, TTC7A / RFU, TMEM135 / Fold change vs veh, TMEM135 / RFU, DEPTOR / Fold change vs veh, DEPTOR / RFU, CPM / Fold change vs veh, CPM / RFU, DNAJB6 / Fold change vs veh, DNAJB6 / RFU, CACNA2D3 / Fold change vs veh, CACNA2D3 / RFU, DTX4 / Fold change vs veh, DTX4 / RFU, TFCP2 / Fold change vs veh, TFCP2 / RFU, GMCL1 /// GMCL1P1 / Fold change vs veh, GMCL1 /// GMCL1P1 / RFU, AEBP2 / Fold change vs veh, AEBP2 / RFU, SNHG1 /// SNORD22 /// SNORD25 /// SNORD26 /// SNORD27 /// SNORD28 /// SNORD29 /// SNORD31 / Fold change vs veh, SNHG1 /// SNORD22 /// SNORD25 /// SNORD26 /// SNORD27 /// SNORD28 /// SNORD29 /// SNORD31 / Fold change (Aza/veh), C12orf56 (ProbeSet 11735607_a_at) / Fold change (ACY-1035/veh), C12orf56 (ProbeSet 11735607_a_at) / Fold change (Aza/veh), FGFR1OP (ProbeSet 11751329_s_at) / Fold change (ACY-1035/veh), FGFR1OP (ProbeSet 11751329_s_at) / Fold change (Aza/veh), VPS36 (ProbeSet 11739960_a_at) / Fold change (ACY-1035/veh), VPS36 (ProbeSet 11739960_a_at) / RFU SYPL1 (11715823_x_at) / Fold change /veh SYPL1 (11715823_x_at) / RFU IGFBP7 (11715501_s_at) / Fold change /veh IGFBP7 (11715501_s_at) / RFU REEP3 (11722064_at) / Fold change /veh REEP3 (11722064_at) / RFU IGLL1 (11728026_x_at) / Fold change /veh IGLL1 (11728026_x_at): dose or concentration left out as unconfirmed
# Settings: ProbeSet 11741070_a_at; LIST B
compound,measurement,value
Nc1ncn([C@@H]2O[C@H](CO)[C@@H](O)[C@H]2O)c(=O)n1 [azacitidine],"Fold change vs veh, ZNF146",0.88
